Assay results as given in PMC11324666, “Two novel in vitro assays to screen chemicals for their capacity to inhibit thyroid hormone transmembrane transporter proteins OATP1C1 and OAT4” (Archives of Toxicology, 2024).
Where two headings read alike, the source gives them in different places.

Tests used:
[1] = target: T1, OAT4 (Homo sapiens, UniProt Q9NSA0); test: MDCK-OAT4 TH uptake assay with 125I-T4 tracer; type: cell-based; conditions: for T4 uptake inhibition BMC20 (M), [CI]: concentration that inhibits 125I-T4 uptake by 20%, brackets = 95% CI; for T4 uptake inhibition BMC20 (M), [CI] / 125I-T4 uptake compared to the vehicle control (range finding): 10 nM T4, 20 min; for 125I-T4 uptake compared to the vehicle control (range finding): single concentration 10 or 100 µM, below 80% = positive hit
T1 construct: V5 (from pLenti6/V5-DEST); expressed in transfected cells; host or cells: MDCK-1 (lentiviral transduction, blasticidin selection)
T1 sequence (Q9NSA0 1-550): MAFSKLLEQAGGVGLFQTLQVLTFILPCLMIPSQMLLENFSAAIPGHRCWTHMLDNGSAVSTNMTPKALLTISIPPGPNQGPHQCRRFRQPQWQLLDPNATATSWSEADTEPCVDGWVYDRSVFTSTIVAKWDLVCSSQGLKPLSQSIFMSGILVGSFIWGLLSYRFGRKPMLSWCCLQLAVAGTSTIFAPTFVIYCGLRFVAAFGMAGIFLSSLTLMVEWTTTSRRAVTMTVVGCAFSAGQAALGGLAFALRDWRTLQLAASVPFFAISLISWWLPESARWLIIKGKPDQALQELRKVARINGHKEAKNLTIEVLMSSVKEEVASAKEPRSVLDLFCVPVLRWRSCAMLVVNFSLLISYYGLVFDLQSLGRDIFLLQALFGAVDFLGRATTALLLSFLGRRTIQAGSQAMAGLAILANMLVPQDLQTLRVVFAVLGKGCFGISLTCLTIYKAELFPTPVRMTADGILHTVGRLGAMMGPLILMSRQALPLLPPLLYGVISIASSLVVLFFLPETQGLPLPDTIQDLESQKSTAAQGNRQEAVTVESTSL
Procedure: Subsequently OAT4 in pENTR™/D-TOPO® Vector was shuffled into the pLenti6/V5-DEST vector (Thermo Fisher) using Gateway™ LR Clonase™ II Enzyme mix (Thermo Fisher) according to the manufacture’s protocol.
To generate an OAT4 stable cell line, MDCK-1 cells were plated in 12-well plates with full growth medium and transduced with fresh viral supernatants in the absence of antibiotics in medium. After 2 days, MDCK-1 cells transduced with OAT4 (MDCK-OAT4) or empty vector (MDCK-DEST) were selected in full growth medium supplemented with 2 µg/mL blasticidin and further maintained under blasticidin selection.
MDCK-OAT4 and MDCK-DEST cells were cultured in DMEM:F12 (L-glutamine, 15 mM HEPES) (Gibco) supplemented with (100 µg/mL penicillin + 100 µg/mL streptomycin), 10% fetal calf serum (Gibco) and 2 µg/mL blasticidin (Sigma). CHO-K1 OATP1C1 or WT cells were cultured in F12 nutrient mix (Gibco) supplemented with (100 µg/mL penicillin + 100 µg/mL streptomycin), 10% fetal calf serum (Gibco) and […] G418 (Sigma). All cell cultures were incubated at 37 °C with 5% CO2 saturation until 80% confluency. MDCK-OAT4 and MDCK-DEST cells were seeded in 96 wells plate at a density of 4 × 10^5 cells in 100 µL medium per well and incubated for 24 h before the start of the MDCK-OAT4 TH uptake assay. CHO-K1 OATP1C1 and WT cells were seeded in 96 wells plate at a density of 3 × 10^5 cells in 100 µL medium per well 72 h before the CHO-K1 OATP1C1 TH uptake assay. Medium from CHO-K1 OATP1C1 or WT assay plates was changed to serum-free F12 medium containing 5 mM sodium-butyrate 24 h before start of the CHO-K1 OATP1C1 TH uptake assay to increase transfected expression of SV-40 promotor plasmids.
Subsequently 10 µL of a tenfold stock of test compound in uptake buffer (solvent concentration 1% v/v) was added to each well. […] Cells were exposed at 37 °C for 20 min (MDCK-OAT4) or 30 min (CHO-K1 OATP1C1), unless stated differently. After exposure, cells were immediately washed with ice-cold PBS supplemented with 0.1% bovine serum albumin (BSA). Subsequently, cells were lysed in 50 µL of 0.1 M NaOH under continuous shaking at room temperature. After 20 min, cell lysates were manually transferred into separate 5 mL polypropylene tubes. One tube was also prepared with 10 µL of the T4 tracer solution. Radioactivity was measured in a Wizard^2 gamma counter (Perkin Elmer).
For the CHO-K1 OATP1C1 TH uptake assay total of 29 chemicals (Table 1) were selected for the EDC screening based on available literature data. […] The same chemicals were selected for the MDCK-OAT4 TH uptake assay, with the exception of BPF, VRP and TCS. […] The THTMT TH uptake assay was then performed as described earlier. […] A concentration of 100 µM ICG was used as a reference chemical for OATP1C1 and 100 µM LESI for OAT4. At least three independent experiments were performed for each chemical. Each individual experiment contained three technical replicates of each control and concentration tested.
Raw values were normalized to the total amount of radioactivity in the T4 tracer solution. These values were expressed as a percentage of total radioactivity added (or uptake percentage) and used for all further data analysis. Statistically significant differences between the T4 uptake of transfected and wild type cells, in the presence or absence of inhibitor, were determined by two-way ANOVA (α = 5%, two-sided). […] In brief, uptake values were normalized to the median response of the vehicle and positive controls for each plate. […] Statistical analysis were performed using GraphPad Prism version 8 for Windows (GraphPad Software, San Diego, California USA) and SAS 9.3 (SAS Institute, Cary NC).

[2] = test system: MDCK-OAT4 cells; test: CellTiter-Glo luminescent cell viability assay in MDCK-OAT4 cells; conditions: for Cytotoxicity IC10: concentration that inhibits cell viability by 10%, MDCK-OAT4 cells, 20 min exposure
Procedure: Cell viability was assessed through the quantitation of ATP present in cells using the commercially available CellTiter-Glo® luminescent cell viability assay and performed according to the manufacturer’s instruction (Promega, Leiden, the Netherlands). Briefly, cells were seeded as described earlier in opaque-walled clear-bottom 96 well plates. On the day of the experiment, each well was washed with 200 µL phosphate buffered saline (PBS) and exposed to 80 µL of uptake buffer, 10 µL of a tenfold stock of test compound solved in uptake buffer or control and 10 µL of T4 (final concentration 10 nM). 0.1% DMSO was used as a solvent control, while 10% DMSO was used as a positive control. After exposure for the indicated times similar to THTMT TH uptake assay, cells were immediately washed with ice-cold PBS + 0.1%BSA and exposed to 100 µL of the CellTiter-Glo® Reagent. Plates were then shaken on an orbital shaker for 2 min and left to incubate at room temperature for 10 min. Luminescence was measured on a BioTek Cytation 5 microplate reader. […] Each individual experiment was repeated at least twice and contained three technical replicates of each control and concentration tested.
Figure S2. […] Blue dots indicate the plate medians from three or four independent experiments, all control and chemical concentrations were tested in triplicates per plate. The black line indicates the best-fit concentrations response curve, the dotted line the corresponding 95% confidence interval.

[3] = test system: oatp1c1; design: method as in Westholm et al. (2009); conditions: T4 1 nM; ref Westholm et al. (2009); read-out: IC50 of T4 transmembrane transport inhibition; cited from earlier work
[4] = test system: oatp1c1; design: method as in Tohyama et al. (2004); conditions: ref Tohyama et al. (2004); cited from earlier work

Compound | T4 uptake inhibition BMC20 (M), [CI] [1] | Cytotoxicity IC10 [2] [µM] | 125I-T4 uptake compared to the vehicle control (range finding) [1] | other results
O=c1c(O)c(-c2ccc(O)c(O)c2)oc2cc(O)cc(O)c12 [Quercetin] | 1.23E−05 [4.77E−06; 3.16E−05] M | > 100 |  | 
Oc1c(Cl)c(Cl)c(Cl)c(Cl)c1Cl [Pentachlorophenol] | 2.65E−05 [2.17E−05; 3.23E−05] M | 1.14 |  | cytotoxic effects ([2]; at concentrations of the uptake assay, Figure S2): cytotoxic
CC1(C)C(/C=C/C=C/C=C/C=C2\N(CCCCS(=O)(=O)O)c3ccc4ccccc4c3C2(C)C)=[N+](CCCCS(=O)(=O)[O-])c2ccc3ccccc3c21 [Indocyanine green, reference compound] | 1.68E−05 [1.20E−05; 2.33E−05] M | > 10 |  | IC50 [3]: 0.1 µM
COc1cc([C@@H]2Oc3c(O)cc([C@H]4Oc5cc(O)cc(O)c5C(=O)[C@@H]4O)cc3[C@H]2CO)ccc1O [Silychristin, reference compound] |  |  | ≥ 80% | 
O=C1OC(c2ccc(O)c(S(=O)(=O)O)c2)(c2ccc(O)c(S(=O)(=O)O)c2)c2c(Br)c(Br)c(Br)c(Br)c21 [Bromosulfophthalein, reference compound] | 7.25E−08 [3.85E−08; 1.36E−07] M | > 100 | below 80% | BMC20 (20% reduction in T4 uptake) [1]: 0.072 µM
Oc1ccc(Cc2ccc(O)cc2)cc1 [Bisphenol F, Bisphenol-F] |  |  | below 80% | 
Oc1ccc(C(c2ccc(O)cc2)(C(F)(F)F)C(F)(F)F)cc1 [Bisphenol AF, Bisphenol-AF] | 5.39E−06 [1.65E−06; 1.76E−05] M |  |  | cytotoxic effects [2]: cytotoxic
O=C(O)C(F)(F)C(F)(F)C(F)(F)C(F)(F)C(F)(F)C(F)(F)C(F)(F)F [Perfluorooctanoic acid] | 1.38E−06 [4.27E−07; 4.44E−06] M | > 100 |  | 
CCCN(CCC)S(=O)(=O)c1ccc(C(=O)O)cc1 [Probenecid, reference compound] | 3.65E−05 [2.69E−05; 4.61E−05] M |  |  | Ki [4]: 293 µM
CO[C@H]1/C=C/O[C@@]2(C)Oc3c(C)c(O)c4c(O)c(c(/C=N/N5CCN(C)CC5)c(O)c4c3C2=O)NC(=O)/C(C)=C\C=C\[C@H](C)[C@H](O)[C@@H](C)[C@@H](O)[C@@H](C)[C@H](OC(C)=O)[C@@H]1C [Rifampicin, reference compound] | 1.02E−05 [4.85E−06; 2.14E−05] M | > 100 |  | 
CC(C)(c1cc(Br)c(O)c(Br)c1)c1cc(Br)c(O)c(Br)c1 [Tetrabromobisphenol A, Tetrabromobisphenol-A] | 6.49E−07 [4.32E−07; 9.74E−07] M | > 10 | below 80% | 
O=S(=O)([O-])c1cc(S(=O)(=O)O)ccc1C1=c2cc3c4c(c2Oc2c1cc1c5c2CCCN5CCC1)CCC[N+]=4CCC3 [Sulforhodamine 101, reference compound] |  |  | ≥ 80% | 
O=S(=O)(O)C(F)(F)C(F)(F)C(F)(F)C(F)(F)C(F)(F)C(F)(F)C(F)(F)C(F)(F)F [Perfluorooctanesulfonic acid] | 1.44E−06 [4.08E−07; 5.05E−06] M | > 100 | below 80% | 
